Eight compounds from ChEMBL document CHEMBL1201862, “PubChem BioAssay data set” (2004) can be followed below.

Holding throughout (experiment): NCI tumour cell line growth inhibition, 48 h
Test [1] concerns A549.
Test [2] concerns NCI-H226.
For test [3], the system named is SK-OV-3.
Test [4] deals with SK-MEL-28.
For test [5], the system named is SK-MEL-5.
The subject of test [6] is M14.
Test [7] relates to NCI-H23.
Test [8] concerns IGROV-1.
Test [9] has as its system HCT-116.
The test system of test [10] is HCC 2998.
Test [11] deals with U-251.
Test [12] concerns CAKI-1.
In test [13] the test system is SNB-19.
In test [14] the test system is MDA-MB-435.
Test [15] relates to SK-MEL-2.
Test [16] has as its system LOX IMVI.
The test system of test [17] is UACC-257.
The subject of test [18] is SF-268.
Test [19] has as its system 786-0.
Test [20] concerns T47D.

Structures are written as SMILES.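 Exposure lasted 48 hours, with cells grown in 96-well plates and compounds tested at five concentrations. GI50 is the concentration that inhibits growth by half.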 Activity calls are given as the source filed them. Rule as the data show it: active = GI50 up to about 1.1 µM and inactive = higher. Bounds are passed on as bounds.

On to `COc1ccc2c(c1)C(=O)CCc1cc(OC)c(OC)c(OC)c1-2`, for which the GI50 in test [1] is 0.0687 µM (active); in test [2] it was 0.0258 µM (active); in [3], < 0.01 µM (active); in [4], 0.0818 µM (active); in [5], 0.0521 µM (active); in test [6], 0.0347 µM (active). In addition, the GI50 in test [7] is 0.024 µM (active); in [8], 0.0553 µM (active); in [9], 0.0506 µM (active); in test [10], 0.0412 µM (active); in [11], 0.0285 µM (active); in test [12] it was 0.127 µM (active). Besides, the GI50 is 0.051 µM (active) in test [13]; 0.0204 µM (active) in [14]; 0.0818 µM (active) in test [15]; 0.0966 µM (active) in test [16]; < 0.01 µM (active) in test [17]; 0.0948 µM (active) in test [18]. In test [19], the GI50 is 0.0542 µM (active).
For the compound `CCNc1cc2c(cc1O)CC[C@@H]1[C@@H]2CC[C@]2(C)[C@@H](O)CC[C@@H]12`, the GI50 in [1] was 2.32 µM (inactive); in test [2], 2.82 µM (inactive); in test [4], 4.59 µM (inactive); in test [5], 0.394 µM (active); in test [6], 1.78 µM (inactive); in test [7], 12.9 µM (inactive). Besides, the GI50 in [8] was 15.5 µM (inactive); in [10], 1.02 µM (active); in test [11], 1.61 µM (inactive); in test [12], 13.5 µM (inactive); in test [13], 0.82 µM (active); in test [20], 6.04 µM (inactive). The GI50 in test [16] was 2.98 µM (inactive); in test [17], 11.8 µM (inactive); in [18], 15.8 µM (inactive); in test [19], 9.91 µM (inactive).
For the compound `FC(F)(F)c1nc2cc(SSc3cc4nc(C(F)(F)F)[nH]c4cc3Cl)c(Cl)cc2[nH]1`, the GI50 in test [1] is > 100 µM (inactive); in [2], 53.3 µM (inactive); in [3], > 100 µM (inactive); in test [4], > 100 µM (inactive); in test [5], 65.3 µM (inactive); in test [6], > 100 µM (inactive). Besides, the GI50 in test [7], in test [8], in test [9], in test [10], in [11] and in test [12] was > 100 µM (inactive) each time. In addition, the GI50 in test [13] is > 100 µM (inactive); in test [14], > 100 µM (inactive); in test [15], > 100 µM (inactive); in test [16], > 100 µM (inactive); in test [17], 93.1 µM (inactive); in [18] it was > 100 µM (inactive). The GI50 in [19] is > 100 µM (inactive).
With `Oc1cc(-c2ccc(Cl)cc2)cn2c1nc1ccccc12`, the GI50 was > 100 µM (inactive) in test [2]; > 100 µM (inactive) in test [3]; > 100 µM (inactive) in test [4]; > 100 µM (inactive) in test [6]; > 100 µM (inactive) in [7]; 9.55 µM (inactive) in test [8]. Moreover, the GI50 was > 100 µM (inactive) in test [9]; 6.59 µM (inactive) in test [11]; > 100 µM (inactive) in [12]; 52.4 µM (inactive) in [13]; 2.2 µM (inactive) in test [14]; > 100 µM (inactive) in [20]. For the same compound, the GI50 is 1.88 µM (inactive) in [16], > 100 µM (inactive) in test [17], > 100 µM (inactive) in test [18] and 25.8 µM (inactive) in [19].
On to `CC(=O)Nc1ccc2cc(C)c(O)nc2n1`, for which the GI50 in test [1], in [3], in test [4], in test [5], in test [6] and in test [7] was > 100 µM (inactive) throughout. Besides, the GI50 in test [8], in test [9], in test [11], in test [12], in test [13] and in [14] was > 100 µM (inactive) each time. The GI50 in test [20] is > 100 µM (inactive); in [15], > 100 µM (inactive); in test [17], > 100 µM (inactive); in test [18], > 100 µM (inactive); in test [19] it was 52.1 µM (inactive).
Regarding `O=S(=O)(O)c1cc(/N=N/c2c(O)ccc3ccccc23)ccc1/C=C/c1ccc(/N=N/c2c(O)ccc3ccccc23)cc1S(=O)(=O)O`, the GI50 was > 100 µM (inactive) in test [1]; > 100 µM (inactive) in test [2]; > 100 µM (inactive) in test [3]; > 100 µM (inactive) in [4]; > 100 µM (inactive) in test [5]; 99.5 µM (inactive) in test [6]. In addition, the GI50 in [7] was > 100 µM (inactive); in test [8] it was 70.3 µM (inactive); in test [9], > 100 µM (inactive); in test [11], > 100 µM (inactive); in [12], > 100 µM (inactive); in test [13], > 100 µM (inactive). The GI50 in test [14], in test [20], in [15], in test [17], in test [18] and in test [19] was > 100 µM (inactive) each time.
Turning to `CCC1CCN=C(Cn2cc(C)c(=O)[nH]c2=O)N1` (stereo unspecified), the GI50 in test [1], in [2], in test [3], in [4], in test [5] and in [6] was > 100 µM (inactive) in each case. In addition, the GI50 in test [7], in [8], in test [9], in test [10], in [11] and in test [13] was > 100 µM (inactive) each time. In addition, the GI50 in test [20], in test [15], in [16], in test [17], in test [18] and in test [19] was > 100 µM (inactive) in each case.
With `N#C/N=C1/c2ccccc2/C(=N/C#N)c2cc(CO)ccc21`, the GI50 is 20.9 µM (inactive) in test [1]; 37.8 µM (inactive) in [2]; 43 µM (inactive) in test [4]; 27 µM (inactive) in test [5]; 48.2 µM (inactive) in [6]; 27.1 µM (inactive) in test [7]. Moreover, the GI50 is 29.4 µM (inactive) in [8]; 29.2 µM (inactive) in test [9]; 34.4 µM (inactive) in [11]; 25.3 µM (inactive) in test [12]; 51.8 µM (inactive) in [13]; 27.4 µM (inactive) in test [14]. Besides, the GI50 is 31.6 µM (inactive) in test [20]; 61.2 µM (inactive) in test [15]; 30.5 µM (inactive) in [16]; 26.6 µM (inactive) in test [17]; 39.2 µM (inactive) in [18]; 36.8 µM (inactive) in test [19].
